Results: patent US12486244B2, “Preparation of semicarbazide-sensitive amine oxidase inhibitor and use thereof” (ENNOVABIO (ZHEJIANG) PHARMACEUTICALS CO., LTD., priority 2020, dated 2025)

Tests used:
Type in all cases: biochemical
[1] = biological target: T1, Recombinant human SSAO protein (Homo sapiens, UniProt Q16853); experiment: In vitro inhibitory activity on SSAO/VAP-1 (MAO-Glo assay); settings: compound 1 μM to 0.05 nM
T1 construct: Eli Lilly (provided, not purchased)
T1 sequence (Q16853 1-763): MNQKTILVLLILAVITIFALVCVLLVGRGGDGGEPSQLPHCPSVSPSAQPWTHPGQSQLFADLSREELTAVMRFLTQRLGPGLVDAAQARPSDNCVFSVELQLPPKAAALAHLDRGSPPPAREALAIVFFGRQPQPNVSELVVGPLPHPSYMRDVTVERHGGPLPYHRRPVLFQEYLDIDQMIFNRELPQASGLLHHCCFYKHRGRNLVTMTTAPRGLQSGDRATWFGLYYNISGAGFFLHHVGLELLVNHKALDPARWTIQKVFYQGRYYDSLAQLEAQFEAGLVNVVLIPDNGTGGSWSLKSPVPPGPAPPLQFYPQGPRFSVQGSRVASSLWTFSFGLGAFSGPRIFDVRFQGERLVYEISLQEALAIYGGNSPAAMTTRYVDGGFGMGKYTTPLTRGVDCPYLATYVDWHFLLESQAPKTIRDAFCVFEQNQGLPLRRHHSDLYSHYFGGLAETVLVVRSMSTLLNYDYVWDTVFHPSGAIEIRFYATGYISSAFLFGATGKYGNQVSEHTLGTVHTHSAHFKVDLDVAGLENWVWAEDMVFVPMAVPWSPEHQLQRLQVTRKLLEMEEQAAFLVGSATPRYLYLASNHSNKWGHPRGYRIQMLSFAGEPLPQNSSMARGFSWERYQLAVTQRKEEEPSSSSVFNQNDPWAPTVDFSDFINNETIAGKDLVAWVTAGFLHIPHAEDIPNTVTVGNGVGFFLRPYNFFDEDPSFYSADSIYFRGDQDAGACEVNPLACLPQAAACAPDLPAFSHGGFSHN
Method: (§1) This assay was used to evaluate the in vitro inhibitory activity of the compounds against SSAO/VAP-1 of different species. Recombinant human SSAO protein, mouse SSAO protein or rat SSAO protein (provided by Eli Lilly) were used. The enzyme activity detection kit, MAO-Glo Assay kit (V1402) was purchased from Promega. Enzyme reaction buffer (50 mM HEPES, 120 mM NaCl, 5 mM KCl, 2 mM CaCl2, 1.4 mM MgCl2, 0.001% Tween-20, pH 7.4) was prepared. The test compounds were dissolved in DMSO and serially diluted by 3-fold. The final concentration of test compound in a 10 μL reaction system was 1 μM to 0.05 nM when SSAO activity was detected. The content of DMSO in the detection reaction system was 1%. After the DMSO solution of test compounds was diluted in the enzyme reaction buffer at a volume ratio of 1:25, 2.5 μL of the solution was added to each well of detection plate with two replicates for each concentration. 5 μL of SSAO protein diluted in the enzyme reaction buffer was added to each well, the final concentration of which was 10 nM to 80 nM in 10 μL reaction system. […] The reaction solution was incubated for 20 minutes at room temperature, and the plate was read with Synergy Neo 2 for detection. […]
(§2) Signalpositive was signal of positive control wells without test compounds added. […] IC50 value was calculated by using 4 parameters curve fitting.

[2] = biological target: T2, Recombinant human AOC1/DAO protein (Homo sapiens, UniProt P19801); experiment: Inhibitory activity on AOC1 (Amplex UltraRed/HRP, putrescine substrate); settings: compound 100 μM to 5 nM
T2 construct: purchased R&D systems 8298-AO
T2 sequence (P19801 20-751): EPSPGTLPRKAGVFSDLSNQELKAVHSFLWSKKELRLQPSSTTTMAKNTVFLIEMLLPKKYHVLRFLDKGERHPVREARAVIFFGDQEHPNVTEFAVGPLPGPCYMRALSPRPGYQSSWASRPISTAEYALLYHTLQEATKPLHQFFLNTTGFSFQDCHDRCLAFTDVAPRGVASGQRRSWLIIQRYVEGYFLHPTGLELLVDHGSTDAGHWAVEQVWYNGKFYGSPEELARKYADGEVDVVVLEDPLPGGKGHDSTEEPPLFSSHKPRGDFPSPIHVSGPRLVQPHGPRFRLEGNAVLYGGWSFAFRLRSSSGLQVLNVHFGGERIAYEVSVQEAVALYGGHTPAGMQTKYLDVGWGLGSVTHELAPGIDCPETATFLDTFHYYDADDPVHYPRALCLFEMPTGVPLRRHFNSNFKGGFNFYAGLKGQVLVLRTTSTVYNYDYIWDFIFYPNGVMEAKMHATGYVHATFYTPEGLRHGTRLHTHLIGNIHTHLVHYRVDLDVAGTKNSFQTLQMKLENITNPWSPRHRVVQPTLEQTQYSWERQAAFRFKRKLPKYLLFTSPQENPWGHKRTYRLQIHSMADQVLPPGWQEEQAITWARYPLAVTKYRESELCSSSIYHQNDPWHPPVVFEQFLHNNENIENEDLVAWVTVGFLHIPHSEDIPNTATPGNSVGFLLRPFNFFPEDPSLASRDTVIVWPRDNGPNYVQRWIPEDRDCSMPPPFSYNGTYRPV
Method: Recombinant human AOC1/DAO protein was purchased from R&D systems (Cat: 8298-AO). Amplex UltraRed was purchased from Thermo scientific (Cat: A36006). HRP (Cat: P8250) and Putrescine (Cat: V900377) were purchased from Sigma. Enzyme reaction buffer (50 mM HEPES, 120 mM NaCl, 5 mM KCl, 2 mM CaCl2, 1.4 mM MgCl2, 0.001% Tween-20, pH7.4) was prepared. Test compound was dissolved in DMSO and serially diluted by 3-fold. The final concentration of test compound in 10 μL reaction system was 100 μM to 5 nM when AOC1 activity was detected. The content of DMSO in detection reaction system was 1%. After the DMSO solution of test compound was diluted in the enzyme reaction buffer at a volume ratio of 1:25, 10 μL of mixture was added to each well of detection plate. 4× substrate mixture (containing 400 μM Putrescine, 4U/mL HRP, 4 μM Amplex UltraRed) was prepared in the enzyme reaction buffer, 10 μL of which was added to each well. 20 μL of AOC1 protein diluted in enzyme reaction buffer was added to each well and the final concentration was 0.4 nM in 40 μL reaction system. Synergy Neo 2 was used to read the plate for detection. […] The enzyme activity was calculated based on the increased signal of each well from the 10th minute to the 30th minute. […]
as §2

[3] = biological target: T3, Recombinant human AOC2 protein (Homo sapiens, UniProt O75106); experiment: Inhibitory activity on AOC2 (MAO-Glo assay); settings: compound 100 μM to 5 nM
T3 construct: Eli Lilly (provided, not purchased)
T3 sequence (O75106 1-756): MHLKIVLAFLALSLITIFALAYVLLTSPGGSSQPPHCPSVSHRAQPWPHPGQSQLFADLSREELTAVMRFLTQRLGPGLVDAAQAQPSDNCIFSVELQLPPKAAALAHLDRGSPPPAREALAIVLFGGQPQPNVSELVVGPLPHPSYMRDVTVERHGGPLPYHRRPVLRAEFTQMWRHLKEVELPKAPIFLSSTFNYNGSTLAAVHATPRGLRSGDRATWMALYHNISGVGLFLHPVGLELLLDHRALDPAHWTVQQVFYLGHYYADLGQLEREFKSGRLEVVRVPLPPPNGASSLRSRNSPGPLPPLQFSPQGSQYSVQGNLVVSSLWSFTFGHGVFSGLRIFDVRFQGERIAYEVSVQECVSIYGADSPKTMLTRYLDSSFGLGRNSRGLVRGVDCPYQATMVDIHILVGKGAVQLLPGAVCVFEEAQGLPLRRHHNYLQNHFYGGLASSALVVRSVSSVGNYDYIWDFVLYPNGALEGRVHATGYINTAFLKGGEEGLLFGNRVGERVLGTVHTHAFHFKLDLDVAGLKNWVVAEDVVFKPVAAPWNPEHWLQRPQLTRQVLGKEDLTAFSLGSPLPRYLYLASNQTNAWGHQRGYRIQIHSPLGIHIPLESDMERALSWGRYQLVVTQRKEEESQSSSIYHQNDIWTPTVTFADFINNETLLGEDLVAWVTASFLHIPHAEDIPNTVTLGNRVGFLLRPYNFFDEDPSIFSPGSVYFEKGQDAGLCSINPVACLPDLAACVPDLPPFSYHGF
Method: as §1, with “1%.” for “1%. After the DMSO solution of test compounds was diluted in the enzyme reaction buffer at a volume ratio of 1:25, 2.5 μL of the solution was added to each well of detection plate with two replicates for each concentration. 5 μL of SSAO protein diluted in the enzyme reaction buffer was added to each well, the final concentration of which was 10 nM to 80 nM in 10 μL reaction system.”
as §2
Recombinant human AOC2 protein (provided by Eli Lilly). […] The final concentration of test compound in 10 μL reaction system was 100 μM to 5 nM when AOC2 activity was detected, while other reaction conditions were the same as those in Biological Test Example 1. […]

Recombinant human MAO-A = biological target: T4, Recombinant human MAO-A (Homo sapiens, UniProt P21397); experiment: Inhibitory activity on MAO-A (MAO-Glo assay); settings: recombinant human MAO-A 70 nM; compound 100 μM to 5 nM
T4 construct: purchased Sigma M7316
T4 sequence (P21397 1-527): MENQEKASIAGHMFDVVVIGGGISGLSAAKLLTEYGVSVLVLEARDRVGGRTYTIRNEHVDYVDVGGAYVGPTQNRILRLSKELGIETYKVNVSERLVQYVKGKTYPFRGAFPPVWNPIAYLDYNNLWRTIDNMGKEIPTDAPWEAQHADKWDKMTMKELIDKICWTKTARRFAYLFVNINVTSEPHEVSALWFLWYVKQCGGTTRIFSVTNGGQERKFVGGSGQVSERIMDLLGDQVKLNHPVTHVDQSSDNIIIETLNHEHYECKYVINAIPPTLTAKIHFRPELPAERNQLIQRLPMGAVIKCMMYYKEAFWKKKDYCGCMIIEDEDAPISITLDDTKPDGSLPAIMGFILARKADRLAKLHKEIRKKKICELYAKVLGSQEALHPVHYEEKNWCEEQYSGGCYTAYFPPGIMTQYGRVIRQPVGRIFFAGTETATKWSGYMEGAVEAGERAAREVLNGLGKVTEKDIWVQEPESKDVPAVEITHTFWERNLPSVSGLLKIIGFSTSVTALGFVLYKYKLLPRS
Method: as §1, with “concentration.” for “concentration. 5 μL of SSAO protein diluted in the enzyme reaction buffer was added to each well, the final concentration of which was 10 nM to 80 nM in 10 μL reaction system.”
as §2
(§3) Recombinant human MAO-A and MAO-B protein was purchased from Sigma (M7316, M7441). […] The final concentration of test compound in 10 μL reaction system was 100 μM to 5 nM when MAO-A and MAO-B activity were detected. […]

Recombinant human MAO-B = biological target: T5, Recombinant human MAO-B (Homo sapiens, UniProt P27338); experiment: Inhibitory activity on MAO-B (MAO-Glo assay); settings: recombinant human MAO-B 300 nM; compound 100 μM to 5 nM
T5 construct: purchased Sigma M7441
T5 sequence (P27338 1-520): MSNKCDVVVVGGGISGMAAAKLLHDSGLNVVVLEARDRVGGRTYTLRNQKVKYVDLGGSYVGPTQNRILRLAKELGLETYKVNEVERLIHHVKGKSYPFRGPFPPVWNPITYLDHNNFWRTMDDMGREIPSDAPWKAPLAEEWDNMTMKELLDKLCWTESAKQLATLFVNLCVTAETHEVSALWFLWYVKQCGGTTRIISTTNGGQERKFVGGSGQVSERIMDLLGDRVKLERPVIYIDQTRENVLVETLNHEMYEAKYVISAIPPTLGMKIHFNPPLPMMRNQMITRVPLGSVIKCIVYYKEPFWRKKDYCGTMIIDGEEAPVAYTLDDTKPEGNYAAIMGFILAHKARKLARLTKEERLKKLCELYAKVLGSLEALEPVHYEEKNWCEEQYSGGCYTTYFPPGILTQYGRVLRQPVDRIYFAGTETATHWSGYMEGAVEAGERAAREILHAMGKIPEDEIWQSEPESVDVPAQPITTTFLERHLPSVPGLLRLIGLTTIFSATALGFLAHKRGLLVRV
Method: as §1, with “concentration.” for “concentration. 5 μL of SSAO protein diluted in the enzyme reaction buffer was added to each well, the final concentration of which was 10 nM to 80 nM in 10 μL reaction system.”
as §2, §3

IC50 [1]	IC50 [2]	IC50 [3]	IC50 (Recombinant human MAO-A)	IC50 (Recombinant human MAO-B)	SMILES
< 0.01 µM	> 10 µM	> 1 µM	10 to 100 µM	> 20 µM	CC1(O)CCN(c2ncc(OC/C(=C/F)CN)cn2)CC1 [Example 1, (E)-1-(5-((2-(Aminomethyl)-3-fluoroallyl)oxy)pyrimidin-2-yl)-4-methylpiperidin-4-ol]
< 0.01 µM	0.1 to 10 µM	> 1 µM	> 100 µM	> 20 µM	COCC1(O)CCN(c2ncc(OC/C(=C/F)CN)cn2)CC1 [Example 2, (E)-1-(5-((2-(aminomethyl)-3-fluoroallyl)oxy)pyrimidin-2-yl)-4-(methoxymethyl)piperidin-4-ol]
